Data from ChEMBL document CHEMBL2021860, “Structure-activity relationships and key structural feature of pyridyloxybenzene-acylsulfonamides as new, potent, and selective peroxisome proliferator-activated receptor (PPAR) γ Agonists” (Bioorg Med Chem, 2012).

How the values were obtained:
[1] = Clearance in human liver microsomes at 1 umol/L after 20 mins by HPLC analysis in presence of NADPH; type: ADME, Microsome; settings: read-out: CLH
[2] = Clearance in rat liver microsomes at 1 umol/L after 20 mins by HPLC analysis in presence of NADPH; type: ADME, Microsome; settings: read-out: CLH
[3] = molecular target: T1, Peroxisome proliferator-activated receptor gamma (Homo sapiens, UniProt P37231); experiment: Transactivation of human PPARgamma1 expressed in CHO-K1 cells co-expressing RXRalpha and PPRE after 1 day by luciferase reporter gene assay; type: cell-based
T1 sequence (P37231 whole entry): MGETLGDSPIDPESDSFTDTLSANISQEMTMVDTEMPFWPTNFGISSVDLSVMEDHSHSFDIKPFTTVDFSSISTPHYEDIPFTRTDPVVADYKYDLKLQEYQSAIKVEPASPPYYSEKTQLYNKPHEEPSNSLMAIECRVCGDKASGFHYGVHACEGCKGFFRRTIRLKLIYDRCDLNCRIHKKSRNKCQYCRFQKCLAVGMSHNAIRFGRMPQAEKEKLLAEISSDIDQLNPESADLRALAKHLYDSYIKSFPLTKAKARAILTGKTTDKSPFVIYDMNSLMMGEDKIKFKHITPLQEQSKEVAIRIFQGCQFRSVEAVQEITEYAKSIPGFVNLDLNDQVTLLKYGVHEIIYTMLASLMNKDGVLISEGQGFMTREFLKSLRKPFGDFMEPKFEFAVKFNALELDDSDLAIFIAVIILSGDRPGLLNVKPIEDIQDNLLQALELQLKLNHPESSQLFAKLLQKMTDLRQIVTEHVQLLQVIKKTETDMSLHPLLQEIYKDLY

[4] = Clearance in human liver microsomes at 1 umol/L after 2 hrs by HPLC analysis in absence of NADPH; type: ADME, Microsome; settings: read-out: CLH
[5] = Clearance in rat liver microsomes at 1 umol/L after 2 hrs by HPLC analysis in absence of NADPH; type: ADME, Microsome; settings: read-out: CLH
[6] = Dissociation constant, pKa of the compound; type: physicochemical
[7] = molecular target: T2, Peroxisome proliferator-activated receptor alpha (Homo sapiens, UniProt Q07869); experiment: Transactivation of human PPARalpha expressed in african green monkey COS1 cells after 1 day by luciferase reporter gene assay; type: cell-based, COS-1
T2 sequence (Q07869 whole entry): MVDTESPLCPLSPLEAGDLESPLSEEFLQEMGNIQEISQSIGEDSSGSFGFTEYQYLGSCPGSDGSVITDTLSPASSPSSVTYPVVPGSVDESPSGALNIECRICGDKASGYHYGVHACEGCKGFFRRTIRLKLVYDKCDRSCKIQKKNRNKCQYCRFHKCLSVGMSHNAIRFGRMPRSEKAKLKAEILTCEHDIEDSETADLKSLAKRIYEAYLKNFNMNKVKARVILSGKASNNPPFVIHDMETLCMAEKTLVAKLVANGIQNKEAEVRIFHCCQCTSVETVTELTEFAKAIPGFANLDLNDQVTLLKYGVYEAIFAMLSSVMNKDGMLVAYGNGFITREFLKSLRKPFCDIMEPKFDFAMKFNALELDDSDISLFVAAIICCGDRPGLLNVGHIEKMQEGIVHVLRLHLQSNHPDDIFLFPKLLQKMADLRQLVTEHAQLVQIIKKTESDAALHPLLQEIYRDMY

[8] = molecular target: T3, Peroxisome proliferator-activated receptor delta (Homo sapiens, UniProt Q03181); experiment: Transactivation of human PPARdelta expressed in african green monkey COS1 cells after 1 day by luciferase reporter gene assay; type: cell-based, COS-1
T3 sequence (Q03181 whole entry): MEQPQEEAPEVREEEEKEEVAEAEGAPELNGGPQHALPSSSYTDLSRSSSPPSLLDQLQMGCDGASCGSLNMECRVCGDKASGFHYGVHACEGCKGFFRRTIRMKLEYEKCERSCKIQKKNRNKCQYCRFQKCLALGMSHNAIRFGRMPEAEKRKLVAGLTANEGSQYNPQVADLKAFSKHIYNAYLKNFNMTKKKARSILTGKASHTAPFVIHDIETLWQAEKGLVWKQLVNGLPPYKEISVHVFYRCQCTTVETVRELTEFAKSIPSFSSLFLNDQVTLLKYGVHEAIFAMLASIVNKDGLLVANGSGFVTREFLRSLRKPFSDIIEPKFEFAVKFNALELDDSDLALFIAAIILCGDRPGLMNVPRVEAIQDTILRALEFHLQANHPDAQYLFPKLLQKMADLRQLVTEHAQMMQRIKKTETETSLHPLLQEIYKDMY

[9] = molecular target: T1, Peroxisome proliferator-activated receptor gamma; experiment: Displacement of [3H]-AD-5061 from human GST-tagged PPARgamma
Rattus norvegicus [10] = experiment: Antidiabetic activity in po dosed Wistar fatty rat type 2 diabetes model assessed as reduction on plasma glucose level administered once daily for 7 days measured by autoanalyzer relative to control; type: functional; settings: 168 h
Rattus norvegicus [11] = experiment: Antidiabetic activity in po dosed Wistar fatty rat type 2 diabetes model assessed as reduction on plasma triglyceride level administered once daily for 7 days measured by autoanalyzer relative to control; type: functional; settings: 168 h
[12] = Cmax in Wistar fatty rat at 0.18 mg/kg, po; type: ADME, organism-based; design: dose 0.18 mg/kg, route oral; settings: in vivo
[13] = AUC (0 to 24 hrs) in Wistar fatty rat at 0.18 mg/kg, po; type: ADME, organism-based; design: time < 24 hr, dose 0.18 mg/kg, route oral; settings: plasma

SMILES | microsomal CLint at 1 µM [1] [µL/min/mg] | microsomal CLint at 1 µM [2] [µL/min/mg] | EC50 [3] [nM] | also measured
CCCCCS(=O)(=O)NC(=O)CCc1ccc(OCCN2CCCC2=O)cc1Oc1ncc(C(F)(F)F)cc1Cl | 78 | 104 |  | 
COCCOc1ccc(CCC(=O)NS(=O)(=O)c2ccccc2)c(Oc2ncc(C(F)(F)F)cc2Cl)c1 |  |  | 32 | 
COCCCS(=O)(=O)NC(=O)CCc1ccc(OCCOC)cc1Oc1ncc(C(F)(F)F)cc1Cl | 7 | 11 | 11 | 
CCCCCS(=O)(=O)NC(=O)C(C)(C)Cc1ccc(OCCOC)cc1Oc1ncc(C(F)(F)F)cc1Cl | 113 | 78 |  | 
CCCCCS(=O)(=O)NC(=O)CCc1ccccc1Oc1ncc(C(F)(F)F)cc1Cl | 78 | 120 | 61 | 
CCCCCS(=O)(=O)NCCCc1ccc(OCCOC)cc1Oc1ncc(C(F)(F)F)cc1Cl | 210 | 204 | 32 | 
CCCCOC(=O)NCCCc1ccc(OCCOC)cc1Oc1ncc(C(F)(F)F)cc1Cl |  |  | 38 | 
CCCCCS(=O)(=O)NC(=O)/C=C/c1ccc(OCCOC)cc1Oc1ncccc1Cl | 18 | 15 | > 10000 | 
CCCCNC(=O)OCCCc1ccc(OCCOC)cc1Oc1ncc(C(F)(F)F)cc1Cl |  |  | 48 | 
COCCOc1ccc(CCC(=O)NS(=O)(=O)c2ccc(Cl)cc2)c(Oc2ncc(C(F)(F)F)cc2Cl)c1 | 67 | 71 | 8.6 | 
CCCCCNC(=O)CCc1ccc(OC(C)C)cc1Oc1ncc(C(F)(F)F)cc1Cl |  |  | 290 | 
CCCCCS(=O)(=O)NC(=O)/C=C/c1ccc(OCCOC)cc1Oc1ncc(N)cc1C |  |  | > 10000 | 
CCCCCS(=O)(=O)NC(=O)OCCCc1ccc(OCCOC)cc1Oc1ncc(C(F)(F)F)cc1Cl | 90 | 35 |  | pKa [6]: 4.6
CCCCCS(=O)(=O)NC(=O)/C=C/c1ccc(OCCOC)cc1Oc1ncc(NC(C)=O)cc1C |  |  | > 10000 | 
CCCCCS(=O)(=O)NC(=O)CCc1ccc(OCC(=O)N(CC)CC)cc1Oc1ncc(C(F)(F)F)cc1Cl | 95 | 92 |  | 
CCCCCNS(=O)(=O)NC(=O)CCc1ccc(OCCOC)cc1Oc1ncc(C(F)(F)F)cc1Cl | 70 | 111 |  | 

Continued, in another order:

microsomal CLint at 1 µM [1] [µL/min/mg] | microsomal CLint at 1 µM [2] [µL/min/mg] | EC50 [3] [nM] | SMILES | also measured
23 | 19 |  | CCCCCS(=O)(=O)NC(=O)/C=C/c1ccc(OCCCC#N)cc1Oc1ncc(C(F)(F)F)cc1Cl | 
20 | 20 |  | CCCCCS(=O)(=O)NC(=O)/C(C)=C/c1ccc(OCCOC)cc1Oc1ncc(C(F)(F)F)cc1Cl | 
72 | 15 |  | CCCCCS(=O)(=O)NC(=O)C(Cc1ccc(OCCOC)cc1Oc1ncc(C(F)(F)F)cc1Cl)OC (stereo not drawn) | 
25 | 17 |  | CCCCCS(=O)(=O)NC(=O)/C=C/c1ccc(OCCOC2CC2)cc1Oc1ncc(C(F)(F)F)cc1Cl | 
77 | 62 |  | CCCCCS(=O)(=O)NC(=O)CCc1ccc(OCCOC)cc1Oc1ncc(C(F)(F)F)cc1Cl | metabolised at 2 h, 1 µM [4]: 50.1%; metabolised at 2 h, 1 µM [5]: 13.6%; pKa [6]: 4.6
57 | 94 |  | CCCCCS(=O)(=O)NC(=O)CCc1ccc(OC(C)C)cc1Oc1ncc(C(F)(F)F)cc1Cl | 
< 1 | < 1 | > 10000 | CCCCCS(=O)(=O)NC(=O)/C=C/c1ccc(OCCOC)cc1Oc1ccc(C(F)(F)F)cn1 | 
19 | 19 |  | CCCCCS(=O)(=O)NC(=O)/C=C/c1ccc(OC(C)C)cc1Oc1ncc(C(F)(F)F)cc1Cl | 
< 1 | < 1 |  | CCCCCS(=O)(=O)NC(=O)/C=C/c1ccc(OCCO)cc1Oc1ncc(C(F)(F)F)cc1Cl | 
40 |  | 5.5 | CCCCCS(=O)(=O)NC(=O)C1CC1c1ccc(OCCOC)cc1Oc1ncc(C(F)(F)F)cc1Cl (stereo not drawn) | hepatic extraction ratio at 20 min, 1 µM [2]: 0.26; metabolised at 2 h, 1 µM [4]: 73.8%; metabolised at 2 h, 1 µM [5]: 81.7%
30 | 19 | 59 | CCCCCS(=O)(=O)NC(=O)/C=C/c1ccc(OCCC(C)=O)cc1Oc1ncc(C(F)(F)F)cc1Cl | 
9 | 6 |  | CCCCCS(=O)(=O)NC(=O)/C=C/c1ccc(OCCOC)cc1Oc1ncc(C(F)(F)F)cc1Cl | EC50 [7]: > 10000 nM; EC50 [8]: > 10000 nM; metabolised at 2 h, 1 µM [4]: 94.8%; metabolised at 2 h, 1 µM [5]: 87.3%; IC50 [9]: 330 nM; ED25 (Rattus norvegicus [10]): 0.17 mg/kg; ED25 (Rattus norvegicus [11]): 0.2 mg/kg; Cmax [12]: 946 ng/mL; AUC(0-t) at 24 h [13]: 15300 ng·h/mL
6 | < 1 | 320 | CCCCCS(=O)(=O)NC(=O)/C=C/c1ccc(OCCCS(C)(=O)=O)cc1Oc1ncc(C(F)(F)F)cc1Cl | 
14 | 10 | 94 | CCCCCS(=O)(=O)NC(=O)/C=C/c1ccc(OCCOC)cc1Oc1ccc(C(F)(F)F)cc1Cl | 
9 | 9 | 190 | CCCCCS(=O)(=O)NC(=O)/C=C/c1ccc(OCCOC)cc1Oc1ncc(Cl)cc1Cl | 
16 | 15 |  | CCCCCS(=O)(=O)NC(=O)/C=C/c1ccc(OCCCOC)cc1Oc1ncc(C(F)(F)F)cc1Cl | 
23 | 31 |  | CCCCCS(=O)(=O)NC(=O)OCc1ccc(OCCOC)cc1Oc1ncc(C(F)(F)F)cc1Cl | 
128 | 189 |  | CCCCCS(=O)(=O)NC(=O)C(C)Cc1ccc(OCCOC)cc1Oc1ncc(C(F)(F)F)cc1Cl (stereo not drawn) | 
